Reference: ChEMBL document CHEMBL1201862, “PubChem BioAssay data set” (2004)
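Interpolation was linear, between the two tested concentrations surrounding the appropriate level; five concentrations were tested over 48 hours in 96-well plates. Here, GI50 denotes the concentration required for 50% inhibition of growth.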 The source made the active and inactive calls. Cut-off read from the data, not from the text of the source: active = GI50 up to about 1.1 µM and inactive = higher.

What was measured:
Test in all cases: DTP human tumour cell line panel, 48 h
SF-268 = tested on: SF-268
A549 = tested on: A549
SK-MEL-2 = tested on: SK-MEL-2
SNB-75 = tested on: SNB-75
LOX IMVI = tested on: LOX IMVI
RPMI-8226 = tested on: RPMI-8226
OVCAR-4 = tested on: OVCAR-4
MCF7 = tested on: MCF7
SNB-19 = tested on: SNB-19
HOP-92 = tested on: HOP-92
HCC 2998 = tested on: HCC 2998
KM12 = tested on: KM12
HCT-15 = tested on: HCT-15
SW-620 = tested on: SW-620
OVCAR-5 = tested on: OVCAR-5
PC-3 = tested on: PC-3
RXF 393 = tested on: RXF 393
COLO 205 = tested on: COLO 205
NCI-H23 = tested on: NCI-H23
SF-539 = tested on: SF-539

SMILES | GI50 (SF-268) | GI50 (A549) | GI50 (SK-MEL-2) | GI50 (SNB-75) | GI50 (LOX IMVI) | GI50 (RPMI-8226) | GI50 (OVCAR-4) | GI50 (MCF7) | GI50 (SNB-19) | GI50 (HOP-92) | GI50 (HCC 2998) | GI50 (KM12) | GI50 (HCT-15) | GI50 (SW-620) | GI50 (OVCAR-5) | GI50 (PC-3) | GI50 (RXF 393) | GI50 (COLO 205) | GI50 (NCI-H23) | GI50 (SF-539)
COc1cc2c(cc1O)CC1c3c(cc(O)c(OC)c3-2)CCN1C (stereo not given) | > 100 µM (inactive) | > 100 µM (inactive) | > 100 µM (inactive) | 81.1 µM (inactive) | > 100 µM (inactive) | > 100 µM (inactive) | > 100 µM (inactive) | > 100 µM (inactive) | > 100 µM (inactive) | > 78.3 µM (inactive) | > 100 µM (inactive) | > 100 µM (inactive) | > 100 µM | > 100 µM (inactive) | > 100 µM (inactive) | > 96.6 µM (inactive) | > 100 µM (inactive) | > 73.5 µM (inactive) | > 100 µM (inactive) | > 39.9 µM (inactive)
CC(C)=CCC[C@@H](C)C1=C(Nc2ccccc2F)C(=O)C(C)=C(O)C1=O | 5.47 µM (inactive) | 4.09 µM (inactive) | 8.75 µM (inactive) | 12.7 µM (inactive) | 4.78 µM (inactive) | 17.4 µM (inactive) | 9.98 µM (inactive) | 9.95 µM (inactive) | 4.42 µM (inactive) | 9.31 µM (inactive) | 7.59 µM (inactive) | 4.16 µM (inactive) | 3.77 µM | 5.98 µM (inactive) | 36.8 µM (inactive) | 8.61 µM (inactive) | 16.8 µM (inactive) | 2.9 µM (inactive) | 3.66 µM (inactive) | 10.1 µM (inactive)
NC(=O)CN1CCN(c2nc(N3CCCC3)c3nc(Cl)c(NCc4ccccc4)nc3n2)CC1 | 8.63 µM (inactive) | 12.9 µM (inactive) | 9.66 µM (inactive) | 10.7 µM (inactive) | 9.33 µM (inactive) | 9.89 µM (inactive) | 16 µM (inactive) | 8.87 µM (inactive) | 9.89 µM (inactive) | 8.36 µM (inactive) | 8.38 µM (inactive) | 10.6 µM (inactive) | 8.67 µM | 11.5 µM (inactive) | 10.1 µM (inactive) | 11.8 µM (inactive) | 7.96 µM (inactive) | 8.75 µM (inactive) | 13.7 µM (inactive) | 9.06 µM (inactive)
Oc1cc2c3c(c1)CCCN3CCC2 | > 10 µM (inactive) | > 10 µM (inactive) | > 10 µM (inactive) | > 10 µM (inactive) | > 10 µM (inactive) | > 10 µM (inactive) | > 10 µM (inactive) | > 10 µM (inactive) | > 10 µM (inactive) | > 10 µM (inactive) | > 10 µM (inactive) | > 10 µM (inactive) | > 10 µM | > 10 µM (inactive) | > 10 µM (inactive) | > 10 µM (inactive) | > 10 µM (inactive) | > 10 µM (inactive) | > 10 µM (inactive) | > 10 µM (inactive)
COc1ccc(C(OCC2OC(n3cc(C)c(=O)[nH]c3=O)CC2n2cc(Cn3cc(F)c(=O)[nH]c3=O)nn2)(c2ccccc2)c2ccccc2)cc1 (stereo not given) | 5.06 µM (inactive) | 4.1 µM (inactive) | 6.31 µM (inactive) | 12.6 µM (inactive) | 4.38 µM (inactive) | 3.04 µM (inactive) | 16.4 µM (inactive) | 3.54 µM (inactive) | 6.07 µM (inactive) | 2.62 µM (inactive) | 3.31 µM (inactive) | 4.25 µM (inactive) | 4.5 µM | 3.72 µM (inactive) | 10.4 µM (inactive) | 4.33 µM (inactive) | 10.6 µM (inactive) | 4.97 µM (inactive) | 8.28 µM (inactive) | 4.23 µM (inactive)
COc1ccc([C@@]23CCC(=O)C[C@@H]2N(C)CC3)cc1OC | > 100 µM (inactive) | > 100 µM (inactive) | > 100 µM (inactive) | > 100 µM (inactive) | > 100 µM (inactive) | > 100 µM (inactive) | > 100 µM (inactive) | > 100 µM (inactive) | > 100 µM (inactive) | > 100 µM (inactive) | > 100 µM (inactive) | > 100 µM (inactive) | > 100 µM | > 100 µM (inactive) | > 100 µM (inactive) | > 100 µM (inactive) | > 100 µM (inactive) | > 100 µM (inactive) | > 100 µM (inactive) | > 100 µM (inactive)
CC[C@H]1C=CCC[C@@]2(C[C@@H]3CC[C@@H]4[C@H](C(=O)OCCCCCCCCCCCCCCCC(=O)N(CCCN)CCCCN)[C@]5(CCC[C@@H](C)O5)NC(=[N+]34)N2)O1 | 0.0214 µM (active) | 0.0365 µM (active) | 0.0259 µM (active) | 0.0533 µM (active) | 0.018 µM (active) | 0.0344 µM (active) | 1.34 µM (inactive) | 0.0684 µM (active) | 0.381 µM (active) | 0.0224 µM (active) | 0.0641 µM (active) | 0.0459 µM (active) | 0.0479 µM | 0.0547 µM (active) | 0.108 µM (active) | 0.0428 µM (active) | 0.071 µM (active) | 0.0336 µM (active) | 0.0724 µM (active) | 0.0679 µM (active)
